The pKi is the negative decadic logarithm of the Ki, by convention in mol/L.

This is an account of results in patent publication US20240400553A1, “AMINE BASED MATRIPTASE 2 INHIBITORS AND USES THEREOF” (Disc Medicine, Inc., priority 2023, published 2024).

pKi: −log10 of the molar value. Bounds are passed on as bounds.

The test deals with T1, Human Recombinant Matriptase 2 (Homo sapiens, UniProt Q8IU80).
T1 construct: made in house
T1 sequence (Q8IU80 1-811): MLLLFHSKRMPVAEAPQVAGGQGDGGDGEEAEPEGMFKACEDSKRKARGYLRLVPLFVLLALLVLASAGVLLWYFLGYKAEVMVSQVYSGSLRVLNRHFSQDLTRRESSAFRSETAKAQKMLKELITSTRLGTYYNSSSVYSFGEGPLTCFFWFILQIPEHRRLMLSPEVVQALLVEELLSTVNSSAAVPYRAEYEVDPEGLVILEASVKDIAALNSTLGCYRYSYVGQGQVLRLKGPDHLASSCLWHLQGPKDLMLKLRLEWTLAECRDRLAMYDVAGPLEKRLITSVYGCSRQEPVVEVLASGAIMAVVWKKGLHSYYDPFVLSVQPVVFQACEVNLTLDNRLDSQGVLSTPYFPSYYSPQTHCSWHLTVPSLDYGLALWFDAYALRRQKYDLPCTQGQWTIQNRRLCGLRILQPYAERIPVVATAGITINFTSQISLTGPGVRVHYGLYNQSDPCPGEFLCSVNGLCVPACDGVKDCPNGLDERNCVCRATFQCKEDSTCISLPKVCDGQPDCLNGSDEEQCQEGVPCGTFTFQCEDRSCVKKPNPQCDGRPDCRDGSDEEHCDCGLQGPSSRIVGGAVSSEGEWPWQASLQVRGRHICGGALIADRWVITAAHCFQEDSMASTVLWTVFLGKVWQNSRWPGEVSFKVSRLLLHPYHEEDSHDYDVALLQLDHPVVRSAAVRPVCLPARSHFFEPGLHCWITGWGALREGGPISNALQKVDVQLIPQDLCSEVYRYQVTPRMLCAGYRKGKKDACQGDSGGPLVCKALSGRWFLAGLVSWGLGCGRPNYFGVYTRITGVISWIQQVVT
Nature of the test: Matriptase 2 inhibition, fluorescence based assay (Method I). The test is classed as biochemical. The note with it: Table A; Ki of Matriptase-2; read-out: Mat-2 Ki. Summed up:
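Fluorogenic readout (Ex 360/Em 480 nm) taken 60 min after adding 62 μM Boc-Gln-Ala-Arg-AMC, following 30-min enzyme–compound preincubation at 25 °C. Conditions: 3.5 nM in-house enzyme, pH 7.5 Tris/NaCl/gelatin buffer, 1% DMSO; percent inhibition versus concentration fitted by variable-slope sigmoidal regression.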
On to `NCc1ccc2cc(C(=O)OCC34CCN(CC3)CC4)n(Cc3cc(NS(=O)(=O)Cc4ccccc4)cc4ccccc34)c2n1` [Compound 19, {1-azabicyclo[2.2.2]-octan-4-yl}methyl 6-(aminomethyl)-1-{[3-(phenylmethanesulfon-amido)naphthalen-1-yl]-methyl}-1H-pyrrolo[2,3-b]pyridine-2-carboxylate], for which the pKi is at least 7.00.

`Cn1cncc1COC(=O)c1cc2ccc(CN)nc2n1Cc1cc(NS(=O)(=O)Cc2ccccc2)cc2ccccc12` [Compound 20, (1-methyl-1H-imidazol-5-yl)methyl 6-(amino-methyl)-1-{[3-(phenyl-methanesulfonamido)-naphthalen-1-yl]methyl}-1H-pyrrolo[2,3-b]pyr-idine-2-carboxylate]: the pKi is at least 7.00.

With `NCc1ccc2cc(C(=O)OCC3CCN(CC4CC4)CC3)n(Cc3cc(NS(=O)(=O)Cc4ccccc4)cc4ccccc34)c2n1` [Compound 21, [1-(cyclopropylmeth-yl)piperidin-4-yl]methyl 6-(aminomethyl)-1-{[3-(phenylmethanesulfon-amido)naphthalen-1-yl]-methyl}-1H-pyrrolo[2,3-b]pyridine-2-carboxylate], the pKi was at least 7.00.

As for `NCc1ccc2cc(C(=O)OC[C@H]3COCCN3)n(Cc3cc(NS(=O)(=O)Cc4ccccc4)cc4ccccc34)c2n1` [Compound 22, [(3R)-morpholin-3-yl]-methyl 6-(aminomethyl)-1-{[3-(phenylmethane-sulfonamido)naphthalen-1-yl]methyl}-1H-pyr-rolo[2,3-b]pyridine-2-carboxylate], the pKi is at least 7.00.

Regarding `CN(C)CCCCOC(=O)c1cc2ccc(CN)nc2n1Cc1cc(NS(=O)(=O)Cc2ccccc2)cc2ccccc12` [Compound 25, 4-(dimethylamino)butyl 6-(aminomethyl)-1-{[3-(phenylmethanesulfon-amido)naphthalen-1-yl]-methyl}-1H-pyrrolo[2,3-b]pyridine-2-carboxylate], the pKi was at least 7.00.

For `CN1CCC(CN(C)C(=O)c2cc3ccc(CN)nc3n2Cc2cc(NS(=O)(=O)Cc3ccccc3)cc3ccccc23)CC1` [Compound 26, 6-(aminomethyl)-N-methyl-N-[(1-methyl-piperidin-4-yl)methyl]-1-{[3-(phenylmethane-sulfonamido)naphthalen-1-yl]methyl}-1H-pyr-rolo[2,3-b]pyridine-2-carboxamide], the pKi was at least 7.00.

Take `C[C@@H](COC(=O)c1cc2ccc(CN)nc2n1Cc1cc(NS(=O)(=O)Cc2ccccc2)cc2ccccc12)N(C)C` [Compound 27, (2S)-2-(dimethylamino)-propyl 6-(aminomethyl)-1-{[3-(phenylmethane-sulfonamido)naphthalen-1-yl]methyl}-1H-pyr-rolo[2,3-b]pyridine-2-carboxylate]: the pKi was at least 7.00.

`CC(C)(C)n1cncc1COC(=O)c1cc2ccc(CN)nc2n1Cc1cc(NS(=O)(=O)Cc2ccccc2)cc2ccccc12` [Compound 29, (1-tert-butyl-1H-imid-azol-5-yl)methyl 6-(aminomethyl)-1-{[3-(phenylmethanesulfon-amido)naphthalen-1-yl]-methyl}-1H-pyrrolo[2,3-b]pyridine-2-carboxylate]: the pKi was at least 7.00.

In the case of `CCC1(COC(=O)c2cc3ccc(CN)nc3n2Cc2cc(NS(=O)(=O)Cc3ccccc3)cc3ccccc23)CCN(C)CC1` [Compound 31, (4-ethyl-1-methylpiper-idin-4-yl)methyl 6-(aminomethyl)-1-{[3-(phenylmethanesulfon-amido)naphthalen-1-yl]-methyl}-1H-pyrrolo[2,3-b]pyridine-2-carboxylate], the negative logarithm of the Ki (pKi) is at least 7.00.

As to `NCc1ccc2cc(C(=O)OCCN3CCNCC3)n(Cc3cc(NS(=O)(=O)Cc4ccccc4)cc4ccccc34)c2n1` [Compound 33, 2-(piperazin-1-yl)ethyl 6-(aminomethyl)-1-{[3-(phenylmethanesulfon-amido)naphthalen-1-yl]-methyl}-1H-pyrrolo[2,3-b]pyridine-2-carboxylate], the pKi was at least 7.00.

With `CN(C)CCCCCOC(=O)c1cc2ccc(CN)nc2n1Cc1cc(NS(=O)(=O)Cc2ccccc2)cc2ccccc12` [Compound 34, 5-(dimethylamino)pentyl 6-(aminomethyl)-1-{[3-(phenylmethanesulfon-amido)naphthalen-1-yl]-methyl}-1H-pyrrolo[2,3-b]pyridine-2-carboxylate], the pKi is at least 7.00.

For `CNCCCOC(=O)c1cc2ccc(CN)nc2n1Cc1cc(NS(=O)(=O)Cc2ccccc2)cc2ccccc12` [Compound 35, 3-(methylamino)propyl 6-(aminomethyl)-1-{[3-(phenylmethanesulfon-amido)naphthalen-1-yl]-methyl}-1H-pyrrolo[2,3-b]pyridine-2-carboxylate], the pKi is at least 7.00.

Turning to `NCc1ccc2cc(C(=O)OC[C@H]3CNCCO3)n(Cc3cc(NS(=O)(=O)Cc4ccccc4)cc4ccccc34)c2n1` [Compound 36], the pKi is at least 7.00.

Consider `CN(C)C(=O)CCCNC(=O)c1cc2ccc(CN)nc2n1Cc1cc(NS(=O)(=O)Cc2ccccc2)cc2ccccc12` [Compound 38, 4-{[6-(aminomethyl)-1-{[3-(phenylmethane-sulfonamido)naphthalen-1-yl]methyl}-1H-pyr-rolo[2,3-b]pyridin-2-yl]-formamido}-N,N-dimethylbutanamide], for which the pKi is at least 7.00.

For `CN1CCC(CCOC(=O)c2cc3ccc(CN)nc3n2Cc2cc(NS(=O)(=O)Cc3ccccc3)cc3ccccc23)CC1` [Compound 39, 2-(1-methylpiperidin-4-yl)ethyl 6-(aminometh-yl)-1-{[3-(phenylmeth-anesulfonamido)naph-thalen-1-yl]methyl}-1H-pyrrolo[2,3-b]pyridine-2-carboxylate], the pKi was at least 7.00.

For `CC(C)(CN)COC(=O)c1cc2ccc(CN)nc2n1Cc1cc(NS(=O)(=O)Cc2ccccc2)cc2ccccc12` [Compound 40, 3-amino-2,2-dimethyl-propyl 6-(aminomethyl)-1-{[3-(phenylmethane-sulfonamido)naphthalen-1-yl]methyl}-1H-pyrrolo-[2,3-b]pyridine-2-car-boxylate], the pKi was at least 7.00.

`CN1CCC(COC(=O)c2cc3ccc(CN)nc3n2Cc2cc(NS(=O)(=O)C(F)(F)c3ccccc3)cc3ccccc23)CC1` [Compound 42, (1-methylpiperidin-4-yl)methyl 6-(aminometh-yl)-1-({3-[difluoro(phen-yl)methanesulfonamido]-naphthalen-1-yl}meth-yl)-1H-pyrrolo[2,3-b]-pyridine-2-carboxylate]: the pKi is at least 7.00.

On to `CC(C)CN1CCC(COC(=O)c2cc3ccc(CN)nc3n2Cc2cc(NS(=O)(=O)Cc3ccccc3)cc3ccccc23)CC1` [Compound 43, [1-(2-methylpropyl)-piperidin-4-yl]methyl 6-(aminomethyl)-1-{[3-(phenylmethanesulfon-amido)naphthalen-1-yl]-methyl}-1H-pyrrolo[2,3-b]pyridine-2-carboxylate], for which the pKi was at least 7.00.

`CN1CCC(CCNC(=O)c2cc3ccc(CN)nc3n2Cc2cc(NS(=O)(=O)Cc3ccccc3)cc3ccccc23)CC1` [Compound 44, 6-(aminomethyl)-N-[2-(1-methylpiperidin-4-yl)ethyl]-1-{[3-(phenyl-methanesulfonamido)-naphthalen-1-yl]methyl}-1H-pyrrolo[2,3-b]pyr-idine-2-carboxamide]: the negative-log Ki (pKi) was at least 7.00.

With `CC(C)(C)n1ccnc1COC(=O)c1cc2ccc(CN)nc2n1Cc1cc(NS(=O)(=O)Cc2ccccc2)cc2ccccc12` [Compound 46, (1-tert-butyl-1H-imid-azol-2-yl)methyl 6-(aminomethyl)-1-{[3-(phenylmethanesulfon-amido)naphthalen-1-yl]-methyl}-1H-pyrrolo[2,3-b]pyridine-2-carboxylate], the pKi is at least 7.00.

For `CN(C)CCCOC(=O)c1cc2ccc(CN)nc2n1Cc1cc(NS(=O)(=O)Cc2ccccc2)cc2ccccc12` [Compound 47, 3-(dimethylamino)prop-yl 6-(aminomethyl)-1-{[3-(phenylmethane-sulfonamido)naphthalen-1-yl]methyl}-1H-pyr-rolo[2,3-b]pyridine-2-carboxylate], the pKi was at least 7.00.

As for `CN(C)CCOC(=O)c1cc2ccc(CN)nc2n1Cc1cc(NS(=O)(=O)Cc2ccccc2)cc2ccccc12` [Compound 49, 2-(dimethylamino)ethyl 6-(aminomethyl)-1-{[3-(phenylmethanesulfon-amido)naphthalen-1-yl]-methyl}-1H-pyrrolo[2,3-b]pyridine-2-carboxylate], the pKi is at least 7.00.

With `NCc1ccc2cc(C(=O)OCCN3CCOCC3)n(Cc3cc(NS(=O)(=O)Cc4ccccc4)cc4ccccc34)c2n1` [Compound 50, 2-(morpholin-4-yl)ethyl 6-(aminomethyl)-1-{[3-(phenylmethanesulfon-amido)naphthalen-1-yl]-methyl}-1H-pyrrolo[2,3-b]pyridine-2-carboxylate], the pKi was at least 7.00.
